Measured values: US20070270475A1, “4-Methoxy-Pyrrolidine-2-Carboxylic Acid Compounds and Derivatives Thereof as Hepatitis C Virus Inhibitors” (priority 2004, published 2007)

Tested on: 11-7 cell line (NS2-5B) HCV replicon
Assay: Replicon ELISA cell based assay, genotype 1b, 11-7 cell line (NS2-5B)
Set-up: species or system HCV genotype 1b
Settings: Hepatitis C virus; 11-7 cell line (NS2-5B) used instead of the 5-15 cell line
Method: Replicon ELISA Cell Based Assay
100 μL of medium containing 10% FCS were added to each well of clear, flat-bottomed 96 well microplates, excepting wells in the top row. Test compound was diluted in assay medium to twice the final required starting concentration from a 40 mM stock solution in DMSO. 200 μL of the starting dilution were introduced into two wells each in the top row and doubling dilutions made down the plate by the sequential transfer of 100 μL aliquots with thorough mixing in the wells; the final 100 μL were discarded. The two bottom rows were not used for compound dilutions. […]
Following incubation, the assay medium was aspirated from the plates. […] The reaction was stopped by the addition of 25 μL per well of 2 M sulphuric acid and the plates were read at 490 nm on a Fluostar Optima spectrophotometer. […]
The absorbance values from all compound-free wells that had received both primary and secondary antibodies were averaged to obtain a positive control value. The mean absorbance value from the compound-free wells that had not received the primary antibody was used to provide the negative (background) control value. The readings from the duplicate wells at each compound concentration were averaged and, after the subtraction of the mean background from all values, were expressed as a percentage of the positive control signal. […]

COC[C@H]1C[C@@](CC(C)C)(C(=O)O)N(C(=O)c2ccc(C(C)(C)C)c(OC)c2)[C@H]1c1ncc(C)s1 (racemic) [Compound C, rel-(2S,4S,5R)-2-isobutyl-1-(3-methoxy-4-tert-butylbenzoyl)-4-methoxymethyl-5-(5-methyl-1,3-thiazol-2-yl)pyrrolidine-2-carboxylic acid, reference compound]
IC50: 0.15 to 10 µM
